Measurements as given in patent US10584317B2 (priority 2006, dated 2020).
“Also recorded” adds a separate entry of the source. Like-named read-outs stand apart in the source and are kept apart here.

Experiments:
PANC-1 tumors [1] = format: in vivo, nude mice
GI-101A tumors [2] = system: GI-101A tumors; set-up: species or system nude mice; conditions: mouse, in vivo
A549 tumors = system: A549 tumors; set-up: species or system nude mice; conditions: mouse, in vivo
PANC-1 tumors [3] = system: PANC-1 tumors; set-up: species or system nude mice; conditions: mouse, in vivo
GLV-1h74 = format: cell-based, vaccinia virus
GLV-1h71 = format: cell-based, vaccinia virus
GI-101A tumors [4] = conditions: mouse, in vivo
GLV-1h68 = format: cell-based, vaccinia virus
GLV-1h73 = format: cell-based, vaccinia virus

`N.N.[Cl][Pt][Cl]` [Cisplatin, cis-diamminedichloroplatinum] was tested, and the “Effect on tumor growth” value (PANC-1 tumors [1]; PANC-1) was “unable to arrest tumor growth”, the Median tumor volume (PANC-1 tumors [1]; day 36 post-implantation) was 170.2 mm^3 and the Median tumor volume (PANC-1 tumors [1]; day 46) was 296.6 mm^3. The Median tumor volume (PANC-1 tumors [1]; day 52) was 254.95 mm^3, the Median tumor volume (PANC-1 tumors [1]; day 57) was 326.2 mm^3 and the Median tumor volume (PANC-1 tumors [1]; day 63) was 460.3 mm^3. The Median tumor volume (PANC-1 tumors [1]; day 72) was 663.4 mm^3, the Median tumor volume (PANC-1 tumors [1]; day 79) was 1022.0 mm^3 and the Median tumor volume (PANC-1 tumors [1]; day 86) was 1718.3 mm^3. For the same compound, the Median tumor volume (PANC-1 tumors [1]; day 94) was 2520.4 mm^3, the Median tumor volume (PANC-1 tumors [1]; day 100) was 3254.1 mm^3 and the “Effect on tumor growth” value (GI-101A tumors [2]) was “decreased the rate of tumor growth, but did not shrink tumors”.
`COc1cccc2c1C(=O)c1c(O)c3c(c(O)c1C2=O)C[C@@](O)(C(=O)CO)C[C@@H]3O[C@H]1C[C@H](N)[C@H](O)[C@H](C)O1` [Doxorubicin, doxorubicin] was tested, and the “Effect on tumor growth” value (GI-101A tumors [2]) was “did not have any effect on the rate of tumor growth”.
`Nc1ccn([C@@H]2O[C@H](CO)[C@@H](O)C2(F)F)c(=O)n1` [Gemcitabine] was tested, and the “Effect on tumor growth” value (A549 tumors) was “increased tumor growth” and the “Effect on tumor growth” value (PANC-1 tumors [3]) was “moderately decreased tumor growth”.
For `Nc1ccn(C[C@@H](CO)OCP(=O)(O)O)c(=O)n1` [cidofovir], the “Number and size of plaques of GLV-1h74” value (GLV-1h74) was “significantly reduced”, the “Plaque formation by GLV-1h74” value (GLV-1h74) was “smaller plaques” and the “Size or number of plaques of GLV-1h74 vs control” value (GLV-1h74) was “no significant differences”. The “Plaque formation by GLV-1h71” value (GLV-1h71) was “smaller plaques; also recorded: almost completely inhibited”, the “Size or number of plaques of GLV-1h71 vs control” value (GLV-1h71) was “no significant differences” and the “Interference with tumor therapy by the virus” value (GI-101A tumors [4]) was “did not significantly interfere”. The “Survival time of GLV-1h74 injected mice” value (GI-101A tumors [4]) was “significantly extended”, the “Plaque formation by GLV-1h68” value (GLV-1h68) was “smaller plaques; also recorded: almost completely inhibited” and the “Size or number of plaques of GLV-1h68 vs control” value (GLV-1h68) was “no significant differences”. For the same compound, the “Number and size of plaques of GLV-1h73” value (GLV-1h73) was “significantly reduced”, the “Plaque formation by GLV-1h73” value (GLV-1h73) was “smaller plaques” and the “Size or number of plaques of GLV-1h73 vs control” value (GLV-1h73) was “no significant differences”.
